Experimental data reported in ChEMBL document CHEMBL4138139, “Discovery of VU6005649, a CNS Penetrant mGlu7/8 Receptor PAM Derived from a Series of Pyrazolo[1,5-a]pyrimidines” (ACS Med Chem Lett, 2017).
pEC50, pIC50: −log10 of the molar value.

What was measured:
[1] = biological target: T1, Metabotropic glutamate receptor 7 (Rattus norvegicus, UniProt P35400); experiment: Positive allosteric modulation of rat mGlu7 receptor expressed in HEK cells co-expressing Galphai5 assessed as increase in glutamate-induced calcium flux incubated for 142 secs followed by glutamate addition measured after 120 secs by Fluo4-AM dye based fluorescence assay; format: functional, cell-based
T1 sequence (P35400 whole entry): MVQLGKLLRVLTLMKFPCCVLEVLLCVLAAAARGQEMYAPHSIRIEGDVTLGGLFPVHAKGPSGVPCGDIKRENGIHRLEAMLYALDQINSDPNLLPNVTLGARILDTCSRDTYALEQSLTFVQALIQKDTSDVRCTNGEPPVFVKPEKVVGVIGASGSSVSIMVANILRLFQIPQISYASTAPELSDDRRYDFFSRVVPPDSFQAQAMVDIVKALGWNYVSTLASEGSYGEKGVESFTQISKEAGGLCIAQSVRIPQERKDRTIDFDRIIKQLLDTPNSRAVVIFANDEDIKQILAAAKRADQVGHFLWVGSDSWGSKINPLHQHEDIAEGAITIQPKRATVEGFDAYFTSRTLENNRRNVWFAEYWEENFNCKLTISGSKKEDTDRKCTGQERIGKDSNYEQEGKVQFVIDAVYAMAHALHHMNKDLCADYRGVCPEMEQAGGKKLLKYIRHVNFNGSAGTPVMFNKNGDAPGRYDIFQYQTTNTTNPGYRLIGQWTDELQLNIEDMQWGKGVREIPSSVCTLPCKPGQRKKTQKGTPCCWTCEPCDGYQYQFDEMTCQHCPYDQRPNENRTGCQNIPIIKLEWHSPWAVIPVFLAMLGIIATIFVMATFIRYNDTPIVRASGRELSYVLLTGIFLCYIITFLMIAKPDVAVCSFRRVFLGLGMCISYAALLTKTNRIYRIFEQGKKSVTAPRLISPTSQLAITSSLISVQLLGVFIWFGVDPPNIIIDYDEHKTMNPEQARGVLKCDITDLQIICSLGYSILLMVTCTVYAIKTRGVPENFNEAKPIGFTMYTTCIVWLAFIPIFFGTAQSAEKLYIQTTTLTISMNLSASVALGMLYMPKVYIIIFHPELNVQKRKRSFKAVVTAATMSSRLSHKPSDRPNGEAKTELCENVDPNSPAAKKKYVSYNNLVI

[2] = biological target: T2, Metabotropic glutamate receptor 4 (Homo sapiens, UniProt Q14833); experiment: Positive allosteric modulation of human mGlu4 receptor expressed in CHO cells co-expressing Gqi5 assessed as increase in glutamate-induced calcium mobilization incubated for 142 secs followed by glutamate addition measured after 120 secs by Fluo4-AM dye based fluorescence assay; format: functional, cell-based
T2 sequence (Q14833 whole entry): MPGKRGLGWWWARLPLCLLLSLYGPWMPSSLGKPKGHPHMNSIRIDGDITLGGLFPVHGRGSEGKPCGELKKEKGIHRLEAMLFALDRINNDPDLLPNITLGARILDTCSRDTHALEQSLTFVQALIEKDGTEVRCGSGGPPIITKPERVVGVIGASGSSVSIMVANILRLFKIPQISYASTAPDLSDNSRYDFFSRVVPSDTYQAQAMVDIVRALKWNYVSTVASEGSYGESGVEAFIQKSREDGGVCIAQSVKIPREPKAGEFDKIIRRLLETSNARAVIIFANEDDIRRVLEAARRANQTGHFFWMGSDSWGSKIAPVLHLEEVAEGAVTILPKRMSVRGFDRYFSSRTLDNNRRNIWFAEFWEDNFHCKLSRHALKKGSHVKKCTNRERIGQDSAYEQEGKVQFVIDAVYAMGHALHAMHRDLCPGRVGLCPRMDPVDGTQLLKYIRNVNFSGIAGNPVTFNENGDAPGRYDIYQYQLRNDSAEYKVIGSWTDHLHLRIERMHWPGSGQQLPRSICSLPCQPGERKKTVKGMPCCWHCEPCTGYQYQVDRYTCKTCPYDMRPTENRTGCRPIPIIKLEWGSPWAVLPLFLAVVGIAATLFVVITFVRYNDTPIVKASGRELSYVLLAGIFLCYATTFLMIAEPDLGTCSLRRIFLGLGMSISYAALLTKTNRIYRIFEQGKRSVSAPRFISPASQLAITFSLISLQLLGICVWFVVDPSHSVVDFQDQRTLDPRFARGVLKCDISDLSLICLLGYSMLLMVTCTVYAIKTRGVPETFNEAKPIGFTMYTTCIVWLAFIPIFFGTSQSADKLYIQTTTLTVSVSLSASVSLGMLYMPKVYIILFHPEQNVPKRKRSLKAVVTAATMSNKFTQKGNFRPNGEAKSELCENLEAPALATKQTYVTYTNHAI

[3] = biological target: T3, Metabotropic glutamate receptor 8 (Rattus norvegicus, UniProt P70579); experiment: Positive allosteric modulation of rat mGlu8 receptor expressed in HEK cells co-expressing Galphai5 assessed as increase in glutamate-induced calcium flux incubated for 142 secs followed by glutamate addition measured after 120 secs by Fluo4-AM dye based fluorescence assay; format: functional, cell-based
T3 sequence (P70579 whole entry): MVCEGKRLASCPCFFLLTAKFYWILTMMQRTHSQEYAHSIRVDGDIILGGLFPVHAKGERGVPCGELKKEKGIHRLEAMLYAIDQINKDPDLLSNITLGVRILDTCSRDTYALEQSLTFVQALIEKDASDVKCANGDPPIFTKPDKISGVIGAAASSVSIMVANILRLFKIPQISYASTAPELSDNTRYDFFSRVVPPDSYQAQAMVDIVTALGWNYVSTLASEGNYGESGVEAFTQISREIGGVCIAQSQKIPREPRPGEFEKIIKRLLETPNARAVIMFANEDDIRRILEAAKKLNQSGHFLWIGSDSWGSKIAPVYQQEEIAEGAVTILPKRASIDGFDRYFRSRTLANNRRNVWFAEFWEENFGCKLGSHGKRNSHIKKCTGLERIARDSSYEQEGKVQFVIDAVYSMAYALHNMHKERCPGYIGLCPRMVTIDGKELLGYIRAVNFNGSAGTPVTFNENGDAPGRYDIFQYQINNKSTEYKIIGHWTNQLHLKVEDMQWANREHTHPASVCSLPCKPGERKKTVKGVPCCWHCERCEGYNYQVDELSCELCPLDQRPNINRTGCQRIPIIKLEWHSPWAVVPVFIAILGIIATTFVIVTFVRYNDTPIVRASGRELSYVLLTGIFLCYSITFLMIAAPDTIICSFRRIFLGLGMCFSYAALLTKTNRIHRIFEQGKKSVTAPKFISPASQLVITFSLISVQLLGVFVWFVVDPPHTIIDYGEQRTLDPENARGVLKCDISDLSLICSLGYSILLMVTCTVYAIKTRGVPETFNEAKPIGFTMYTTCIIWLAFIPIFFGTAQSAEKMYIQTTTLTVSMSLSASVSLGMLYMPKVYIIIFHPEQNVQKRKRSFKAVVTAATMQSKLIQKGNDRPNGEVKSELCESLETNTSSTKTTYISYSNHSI

[4] = Unbound brain to plasma concentration ratio in Sprague-Dawley rat at 0.2 to […], iv administered as cassette dose measured at […] post dose by LC-MS/MS analysis; format: ADME, organism-based; conditions: brain and plasma, read-out: K(p,uu,brain)
[5] = Brain to plasma partition coefficient, Kp of the compound in Sprague-Dawley rat at 0.2 to […], iv administered as cassette dose measured at […] post dose by LC-MS/MS analysis; format: ADME, organism-based; conditions: brain and plasma
[6] = biological target: T1, Metabotropic glutamate receptor 7; experiment: Negative allosteric modulation of rat mGlu7 receptor expressed in HEK cells co-expressing Galphai5 assessed as decrease in glutamate-induced thallium flux incubated for 142 secs followed by glutamate addition measured after 120 secs by Fluo4-AM dye based fluorescence assay; format: functional, cell-based
[7] = biological target: T3, Metabotropic glutamate receptor 8; experiment: Negative allosteric modulation of rat mGlu8 receptor expressed in HEK cells co-expressing Galphai5 assessed as decrease in glutamate-induced thallium flux incubated for 142 secs followed by glutamate addition measured after 120 secs by Fluo4-AM dye based fluorescence assay; format: functional, cell-based
[8] = biological target: T2, Metabotropic glutamate receptor 4; experiment: Negative allosteric modulation of human mGlu4 receptor expressed in CHO cells co-expressing Gqi5 harboring GIRK channel assessed as decrease in glutamate-induced thallium flux incubated for 142 secs followed by glutamate addition measured after 120 secs by Fluo4-AM dye based fluorescence assay; format: functional, cell-based
[9] = biological target: Cytochrome P450 2C9 (Homo sapiens, UniProt P11712); experiment: Inhibition of CYP2C9 in human liver microsomes using diclofenac as substrate preincubated for 15 mins followed by NADPH addition measured after 8 mins by LC-MS/MS analysis; format: ADME
Cytochrome P450 2C9, sequence (P11712 whole entry): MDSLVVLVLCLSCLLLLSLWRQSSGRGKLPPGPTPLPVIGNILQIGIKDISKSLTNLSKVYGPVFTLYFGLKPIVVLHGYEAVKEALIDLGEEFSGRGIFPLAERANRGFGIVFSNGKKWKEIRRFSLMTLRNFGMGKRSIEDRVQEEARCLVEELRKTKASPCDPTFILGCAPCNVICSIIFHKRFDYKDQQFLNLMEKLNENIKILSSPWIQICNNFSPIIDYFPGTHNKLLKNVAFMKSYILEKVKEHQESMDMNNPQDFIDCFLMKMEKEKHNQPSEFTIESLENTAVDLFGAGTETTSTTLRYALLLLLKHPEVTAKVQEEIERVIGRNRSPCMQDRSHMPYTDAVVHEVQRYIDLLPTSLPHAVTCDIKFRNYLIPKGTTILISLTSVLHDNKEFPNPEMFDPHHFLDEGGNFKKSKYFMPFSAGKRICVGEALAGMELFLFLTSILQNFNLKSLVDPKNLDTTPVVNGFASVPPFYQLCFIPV

[10] = biological target: T4, Cytochrome P450 1A2 (Homo sapiens, UniProt P05177); experiment: Inhibition of CYP1A2 in human liver microsomes using phenacetin as substrate preincubated for 15 mins followed by NADPH addition measured after 8 mins by LC-MS/MS analysis; format: ADME
T4 sequence (P05177 whole entry): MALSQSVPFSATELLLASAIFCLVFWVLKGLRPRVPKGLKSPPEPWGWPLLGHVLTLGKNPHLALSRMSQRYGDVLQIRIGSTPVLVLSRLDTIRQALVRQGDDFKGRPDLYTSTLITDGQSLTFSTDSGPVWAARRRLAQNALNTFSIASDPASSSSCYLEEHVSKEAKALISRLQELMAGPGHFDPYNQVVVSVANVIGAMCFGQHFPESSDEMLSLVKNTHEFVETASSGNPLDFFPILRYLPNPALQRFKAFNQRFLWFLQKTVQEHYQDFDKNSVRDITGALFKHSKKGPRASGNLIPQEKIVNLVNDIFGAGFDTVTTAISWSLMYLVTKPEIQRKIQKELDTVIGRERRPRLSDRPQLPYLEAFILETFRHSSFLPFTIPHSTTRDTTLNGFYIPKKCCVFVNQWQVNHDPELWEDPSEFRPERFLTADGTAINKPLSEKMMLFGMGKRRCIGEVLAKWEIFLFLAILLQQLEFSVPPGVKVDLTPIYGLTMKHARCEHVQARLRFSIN

[11] = biological target: Cytochrome P450 3A4 (Homo sapiens, UniProt P08684); experiment: Inhibition of CYP3A4 in human liver microsomes using midazolam as substrate preincubated for 15 mins followed by NADPH addition measured after 8 mins by LC-MS/MS analysis; format: ADME
Cytochrome P450 3A4, sequence (P08684 whole entry): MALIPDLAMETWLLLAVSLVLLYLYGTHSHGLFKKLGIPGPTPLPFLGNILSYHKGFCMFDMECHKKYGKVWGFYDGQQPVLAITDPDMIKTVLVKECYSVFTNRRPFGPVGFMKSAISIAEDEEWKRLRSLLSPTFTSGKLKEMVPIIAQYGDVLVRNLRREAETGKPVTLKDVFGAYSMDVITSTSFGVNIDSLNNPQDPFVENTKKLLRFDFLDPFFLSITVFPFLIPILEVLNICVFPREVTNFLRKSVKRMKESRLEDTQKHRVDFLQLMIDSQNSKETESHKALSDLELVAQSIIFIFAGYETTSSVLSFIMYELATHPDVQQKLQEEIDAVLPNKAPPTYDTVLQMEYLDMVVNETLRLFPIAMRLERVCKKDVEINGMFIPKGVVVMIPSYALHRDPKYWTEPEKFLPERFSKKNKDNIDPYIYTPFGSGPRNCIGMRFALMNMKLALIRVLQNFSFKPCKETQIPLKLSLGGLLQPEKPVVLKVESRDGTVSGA

[12] = biological target: Cytochrome P450 2D6 (Homo sapiens, UniProt P10635); experiment: Inhibition of CYP2D6 in human liver microsomes using dextromethorphan as substrate preincubated for 15 mins followed by NADPH addition measured after 8 mins by LC-MS/MS analysis; format: ADME
Cytochrome P450 2D6, sequence (P10635 whole entry): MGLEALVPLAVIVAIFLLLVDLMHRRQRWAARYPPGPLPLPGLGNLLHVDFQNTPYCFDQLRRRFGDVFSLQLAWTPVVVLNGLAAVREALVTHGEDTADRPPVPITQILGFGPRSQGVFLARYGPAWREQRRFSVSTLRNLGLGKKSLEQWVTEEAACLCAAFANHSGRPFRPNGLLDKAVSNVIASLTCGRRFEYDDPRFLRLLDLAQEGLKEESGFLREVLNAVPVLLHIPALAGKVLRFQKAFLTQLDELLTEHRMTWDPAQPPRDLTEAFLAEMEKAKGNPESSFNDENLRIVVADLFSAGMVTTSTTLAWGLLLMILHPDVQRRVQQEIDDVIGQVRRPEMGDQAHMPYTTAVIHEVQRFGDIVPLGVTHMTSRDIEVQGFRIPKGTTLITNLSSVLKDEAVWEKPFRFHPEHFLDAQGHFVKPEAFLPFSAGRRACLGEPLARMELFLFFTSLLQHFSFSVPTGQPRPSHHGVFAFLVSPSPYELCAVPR

## COC(=O)c1ccc(-n2c(C)cc(C(=O)CSc3ccc(NC(C)=O)cc3)c2C)cc1
[1]
  pEC50: 5.82
[2]
  pEC50: 5.49
[3]
  pEC50: 6.05

## COc1ccc(-c2c(C)nn3c(C(F)(F)F)cc(C)nc23)cc1Cl
[4]
  Kp uu at […]: 1.7
[5]
  Kp at […]: 4.8

## CCc1nc2c(o1)CC(c1ccc(C)cc1C)CC2=O (configuration not stated)
[6]
  pIC50: 6.19
[7]
  pIC50: < 5.00
[8]
  pIC50: < 5.00

## COc1cc(F)c(-c2c(C)nn3c(C(F)(F)F)cc(C)nc23)c(F)c1
[9]
  pIC50: < 4.52
[10]
  pIC50: 5.06
[11]
  pIC50: < 4.52
[5]
  Kp at […]: 2.2
[12]
  pIC50: < 4.52

## COc1cc(F)c(-c2c(C)nn3c(C(F)(F)F)cc(C)nc23)cc1F
[9]
  pIC50: < 4.52
[10]
  pIC50: 5.53
[11]
  pIC50: < 4.52
[5]
  Kp at […]: 2.7
[12]
  pIC50: < 4.52

## Cc1cc(C(F)(F)F)n2nc(C)c(-c3ccc(OC(F)F)cc3)c2n1
[4]
  Kp uu at […]: 0.8
[5]
  Kp at […]: 1.5

## COc1ccc(-c2c(C)nn3c(C(F)(F)F)cc(C)nc23)c(F)c1
[4]
  Kp uu at […]: 0.9
[5]
  Kp at […]: 1.4

## COc1ccc(-c2c(C)nn3c(C(F)(F)F)cc(C)nc23)cc1
[9]
  pIC50: < 4.52
[10]
  pIC50: 6.16
[11]
  pIC50: < 4.52
[5]
  Kp at […]: 1.4
[12]
  pIC50: < 4.52

## COc1ccc(-c2c(C)nn3c(C(F)(F)F)cc(C)nc23)cc1F
[9]
  pIC50: 4.57
[10]
  pIC50: 6.48
[11]
  pIC50: < 4.52
[5]
  Kp at […]: 4.3
[12]
  pIC50: < 4.52
